{
  "source": "the supplement of paper PMC4862054",
  "conditions_in_all_cases": "incubation time: 72 h",
  "key": {"CAL-85-1 [1]": {"test_system": "CAL-85-1", "experiment": "normalised viability (% of control), CellTiter-Blue; higher = more viable cells (about 100 = DMSO control)", "summary_of_the_method": "(§1)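 The reported figure is normalised viability at a single listed concentration of the series. Breast cancer cell lines (20 µl suspension) went onto 384-well plates holding compound in 5 µl medium for 72 h. CellTiter-Blue (2.5 µl, 2 h, 37 °C) was read by fluorescence at 560/590 nm, and each plate was scaled to vehicle at 100 and a positive kill control at 0.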"}, "CAL-51 [2]": {"test_system": "CAL-51", "experiment": "normalised viability (% of control), CellTiter-Blue; higher = more viable cells (about 100 = DMSO control)", "summary_of_the_method": "as §1"}, "Hs578T [3]": {"test_system": "Hs578T", "experiment": "normalised viability (% of control), CellTiter-Blue; higher = more viable cells (about 100 = DMSO control)", "summary_of_the_method": "as §1"}, "CAL-120 [4]": {"test_system": "CAL-120", "experiment": "normalised viability (% of control), CellTiter-Blue; higher = more viable cells (about 100 = DMSO control)", "summary_of_the_method": "as §1"}, "MDA-MB-468 [5]": {"test_system": "MDA-MB-468", "experiment": "normalised viability (% of control), CellTiter-Blue; higher = more viable cells (about 100 = DMSO control)", "summary_of_the_method": "as §1"}, "HCC1599 [6]": {"test_system": "HCC1599", "experiment": "normalised viability (% of control), CellTiter-Blue; higher = more viable cells (about 100 = DMSO control)", "summary_of_the_method": "as §1"}, "MDA-MB-436 [7]": {"test_system": "MDA-MB-436", "experiment": "normalised viability (% of control), CellTiter-Blue; higher = more viable cells (about 100 = DMSO control)", "summary_of_the_method": "as §1"}, "CAL-85-1 [8]": {"test_system": "CAL-85-1", "experiment": "drug sensitivity score (DSS), CellTox Green (DSS (AUC-based score)); higher = stronger drug effect (viability inhibition or cytotoxicity); extreme values may be limits of the assay", "summary_of_the_method": "(§2)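 A drug sensitivity score was derived from the area under each fitted dose-response curve. Breast cancer cells (20 µl suspension) were seeded onto compound in 384-well plates, using 5 concentrations 10-fold apart over a compound-specific 10,000-fold range, and incubated 72 h. Readouts were CellTox Green fluorescence and then CellTiter-Glo luminescence, with every plate normalised to 0.1 % DMSO and a positive kill control.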"}, "CAL-51 [9]": {"test_system": "CAL-51", "experiment": "drug sensitivity score (DSS), CellTox Green (DSS (AUC-based score)); higher = stronger drug effect (viability inhibition or cytotoxicity); extreme values may be limits of the assay", "summary_of_the_method": "as §2"}, "MFM-223": {"test_system": "MFM-223", "experiment": "drug sensitivity score (DSS), CellTox Green (DSS (AUC-based score)); higher = stronger drug effect (viability inhibition or cytotoxicity); extreme values may be limits of the assay", "summary_of_the_method": "as §2"}, "MCF-10A": {"test_system": "MCF-10A", "experiment": "drug sensitivity score (DSS), CellTox Green (DSS (AUC-based score)); higher = stronger drug effect (viability inhibition or cytotoxicity); extreme values may be limits of the assay", "summary_of_the_method": "as §2"}, "HCC1937": {"test_system": "HCC1937", "experiment": "drug sensitivity score (DSS), CellTox Green (DSS (AUC-based score)); higher = stronger drug effect (viability inhibition or cytotoxicity); extreme values may be limits of the assay", "summary_of_the_method": "as §2"}, "Hs578T [10]": {"test_system": "Hs578T", "experiment": "drug sensitivity score (DSS), CellTox Green (DSS (AUC-based score)); higher = stronger drug effect (viability inhibition or cytotoxicity); extreme values may be limits of the assay", "summary_of_the_method": "as §2"}, "CAL-120 [11]": {"test_system": "CAL-120", "experiment": "drug sensitivity score (DSS), CellTox Green (DSS (AUC-based score)); higher = stronger drug effect (viability inhibition or cytotoxicity); extreme values may be limits of the assay", "summary_of_the_method": "as §2"}, "HDQ-P1": {"test_system": "HDQ-P1", "experiment": "drug sensitivity score (DSS), CellTox Green (DSS (AUC-based score)); higher = stronger drug effect (viability inhibition or cytotoxicity); extreme values may be limits of the assay", "summary_of_the_method": "as §2"}, "HCC1143": {"test_system": "HCC1143", "experiment": "drug sensitivity score (DSS), CellTox Green (DSS (AUC-based score)); higher = stronger drug effect (viability inhibition or cytotoxicity); extreme values may be limits of the assay", "summary_of_the_method": "as §2"}, "MDA-MB-468 [12]": {"test_system": "MDA-MB-468", "experiment": "drug sensitivity score (DSS), CellTox Green (DSS (AUC-based score)); higher = stronger drug effect (viability inhibition or cytotoxicity); extreme values may be limits of the assay", "summary_of_the_method": "as §2"}, "MDA-MB-453": {"test_system": "MDA-MB-453", "experiment": "drug sensitivity score (DSS), CellTox Green (DSS (AUC-based score)); higher = stronger drug effect (viability inhibition or cytotoxicity); extreme values may be limits of the assay", "summary_of_the_method": "as §2"}, "HCC1599 [13]": {"test_system": "HCC1599", "experiment": "drug sensitivity score (DSS), CellTox Green (DSS (AUC-based score)); higher = stronger drug effect (viability inhibition or cytotoxicity); extreme values may be limits of the assay", "summary_of_the_method": "as §2"}, "BT-474": {"test_system": "BT-474", "experiment": "drug sensitivity score (DSS), CellTox Green (DSS (AUC-based score)); higher = stronger drug effect (viability inhibition or cytotoxicity); extreme values may be limits of the assay", "summary_of_the_method": "as §2"}, "MDA-MB-231": {"test_system": "MDA-MB-231", "experiment": "drug sensitivity score (DSS), CellTox Green (DSS (AUC-based score)); higher = stronger drug effect (viability inhibition or cytotoxicity); extreme values may be limits of the assay", "summary_of_the_method": "as §2"}, "BT-549": {"test_system": "BT-549", "experiment": "drug sensitivity score (DSS), CellTox Green (DSS (AUC-based score)); higher = stronger drug effect (viability inhibition or cytotoxicity); extreme values may be limits of the assay", "summary_of_the_method": "as §2"}, "CAL-148": {"test_system": "CAL-148", "experiment": "drug sensitivity score (DSS), CellTox Green (DSS (AUC-based score)); higher = stronger drug effect (viability inhibition or cytotoxicity); extreme values may be limits of the assay", "summary_of_the_method": "as §2"}, "DU-4475": {"test_system": "DU-4475", "experiment": "drug sensitivity score (DSS), CellTox Green (DSS (AUC-based score)); higher = stronger drug effect (viability inhibition or cytotoxicity); extreme values may be limits of the assay", "summary_of_the_method": "as §2"}, "MDA-MB-436 [14]": {"test_system": "MDA-MB-436", "experiment": "drug sensitivity score (DSS), CellTox Green (DSS (AUC-based score)); higher = stronger drug effect (viability inhibition or cytotoxicity); extreme values may be limits of the assay", "summary_of_the_method": "as §2"}},
  "data": [
    {"smiles": "COc1cc2c(cc1O)CC[C@@H]1[C@@H]2CC[C@]2(C)[C@@H](O)CC[C@@H]12", "note": "[2-methoxyestradiol]", "values": [
      {"measurement": "normalised viability", "setting": "CAL-85-1 [1]; 3 nM", "result": 91.4, "unit": "%"},
      {"measurement": "normalised viability", "setting": "CAL-85-1 [1]; 30 nM", "result": 85.5, "unit": "%"},
      {"measurement": "normalised viability", "setting": "CAL-85-1 [1]; 100 nM", "result": 94.5, "unit": "%"},
      {"measurement": "normalised viability", "setting": "CAL-51 [2]; 3 nM", "result": 122, "unit": "%"},
      {"measurement": "normalised viability", "setting": "CAL-51 [2]; 30 nM", "result": 114, "unit": "%"},
      {"measurement": "normalised viability", "setting": "CAL-51 [2]; 100 nM", "result": 106, "unit": "%"},
      {"measurement": "normalised viability", "setting": "Hs578T [3]; 10 nM", "result": 114, "unit": "%"},
      {"measurement": "normalised viability", "setting": "Hs578T [3]; 1000 nM", "result": 67.5, "unit": "%"},
      {"measurement": "normalised viability", "setting": "Hs578T [3]; 10000 nM", "result": 16.2, "unit": "%"},
      {"measurement": "normalised viability", "setting": "CAL-120 [4]; 10 nM", "result": 105, "unit": "%"},
      {"measurement": "normalised viability", "setting": "CAL-120 [4]; 1000 nM", "result": 61.4, "unit": "%"},
      {"measurement": "normalised viability", "setting": "CAL-120 [4]; 10000 nM", "result": 24.2, "unit": "%"},
      {"measurement": "normalised viability", "setting": "MDA-MB-468 [5]; 10 nM", "result": 111, "unit": "%"},
      {"measurement": "normalised viability", "setting": "MDA-MB-468 [5]; 1000 nM", "result": 97.2, "unit": "%"},
      {"measurement": "normalised viability", "setting": "MDA-MB-468 [5]; 10000 nM", "result": 50.1, "unit": "%"},
      {"measurement": "normalised viability", "setting": "HCC1599 [6]; 10 nM", "result": 97.3, "unit": "%"},
      {"measurement": "normalised viability", "setting": "HCC1599 [6]; 1000 nM", "result": 116, "unit": "%"},
      {"measurement": "normalised viability", "setting": "HCC1599 [6]; 10000 nM", "result": 80.5, "unit": "%"},
      {"measurement": "normalised viability", "setting": "MDA-MB-436 [7]; 10 nM", "result": 104, "unit": "%"},
      {"measurement": "normalised viability", "setting": "MDA-MB-436 [7]; 1000 nM", "result": 60.5, "unit": "%"},
      {"measurement": "normalised viability", "setting": "MDA-MB-436 [7]; 10000 nM", "result": 44.6, "unit": "%"},
      {"measurement": "drug sensitivity score", "setting": "CAL-85-1 [8]", "result": 0},
      {"measurement": "drug sensitivity score", "setting": "CAL-51 [9]", "result": 4.37},
      {"measurement": "drug sensitivity score", "setting": "MFM-223", "result": 6.65},
      {"measurement": "drug sensitivity score", "setting": "MCF-10A", "result": 1.69},
      {"measurement": "drug sensitivity score", "setting": "HCC1937", "result": 0},
      {"measurement": "drug sensitivity score", "setting": "Hs578T [10]", "result": 8.52},
      {"measurement": "drug sensitivity score", "setting": "CAL-120 [11]", "result": 0.794},
      {"measurement": "drug sensitivity score", "setting": "HDQ-P1", "result": 0},
      {"measurement": "drug sensitivity score", "setting": "HCC1143", "result": 0},
      {"measurement": "drug sensitivity score", "setting": "MDA-MB-468 [12]", "result": 0},
      {"measurement": "drug sensitivity score", "setting": "MDA-MB-453", "result": 0},
      {"measurement": "drug sensitivity score", "setting": "HCC1599 [13]", "result": 0},
      {"measurement": "drug sensitivity score", "setting": "BT-474", "result": 3.99},
      {"measurement": "drug sensitivity score", "setting": "MDA-MB-231", "result": 13.2},
      {"measurement": "drug sensitivity score", "setting": "BT-549", "result": 0.838},
      {"measurement": "drug sensitivity score", "setting": "CAL-148", "result": 0},
      {"measurement": "drug sensitivity score", "setting": "DU-4475", "result": 0},
      {"measurement": "drug sensitivity score", "setting": "MDA-MB-436 [14]", "result": 0}
    ]}
  ]
}
